Measured values as given in PubChem BioAssay (NCI).
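Protocol summary: plate cells (96-well), add compound at 5 concentrations, incubate 48 h, interpolate endpoints linearly. Definition used: TGI = concentration required for complete inhibition of growth.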

Columns and labels:
Assay in all cases: NCI tumour cell line growth inhibition, 48 h
[1] = test system: U251 CNS
[2] = test system: DMS 114 small cell lung
[3] = test system: SNB-78 CNS
[4] = test system: XF 498 CNS
[5] = test system: DMS 273 small cell lung
[6] = test system: M14 melanoma
[7] = test system: HOP-18 NSCLC
[8] = test system: SF-539 CNS
[9] = test system: KM20L2 colon
[10] = test system: M19-MEL melanoma
[11] = test system: LXFL 529 NSCLC
[12] = test system: RXF-631 renal
[13] = test system: RPMI-8226 leukemia
[14] = test system: DLD-1 colon
[15] = test system: P388/ADR leukemia
[16] = test system: SN12K1 renal
[17] = test system: P388 leukemia

Compound	TGI [1] [µM]	TGI [2] [µM]	TGI [3] [µM]	TGI [4] [µM]	TGI [5] [µM]	TGI [6] [µM]	TGI [7] [µM]	TGI [8] [µM]	TGI [9] [µM]	TGI [10] [µM]	TGI [11] [µM]	TGI [12] [µM]	TGI [13] [µM]	TGI [14] [µM]	TGI [15] [µM]	TGI [16] [µM]	TGI [17] [µM]
COc1cc2c3c(c1OC)C1(C=CC(=O)C=C1)C[C@H]3N(C)CC2	> 100	> 100	> 100	> 100	> 100	> 100	> 100	> 100	> 100	> 100	> 100	> 100	> 100	> 100			
COc1ccc(C2COc3cc(O)c(O)cc3C2)cc1 (stereo not given)	77.8		268		160		110	136	221	86.6			25.2	25.3	8.53	98.9	18.7
CSc1sc2ccccc2[s+]1	> 100	> 100			> 100	> 100	> 100	> 100	> 100	> 100	> 100	> 100	> 100	> 100			
O=NN(CCCl)C(=O)NC1CCC(O)CC1 (stereo not given)	> 100	51.5	63.3	60.3	> 100		> 90.9	> 61	> 100	> 91			34.9	> 77	18	> 100	20.5
CC(=O)OCC1OC(n2c3c(cc(C#N)c2=S)CCCCC3)C(OC(C)=O)C(OC(C)=O)C1OC(C)=O (stereo not given)	> 100					> 100		> 100					> 100				
Nc1ccn(C2OC(CO)C(O)C2O)c(=O)c1 (stereo not given)	> 625		> 625	< 0.0625	> 625		> 625	> 625	> 625				524	> 625		> 625	> 625
CN(C)c1ccc(C2SCC(=O)N2c2ccc(Oc3ccc(Cl)cc3)c(Cl)c2)cc1 (stereo not given)	53.9					69		40.4					58.1				
O=C(O)/C=c1/c2ccccc2n2nc3ccccc3c12	> 100					> 100		73.5					70.1				
CC(C)=CCNc1ncnc2c1ncn2CCC#N	> 100					> 100		> 100					> 100				
CC(C)(Cl)C(Br)CCC(=CCCl)CBr (mixture of isomers)	5.59					4.05		3.96					4.38				
CC(C)(C)C(=O)CC1=Nc2ccccc2SC1(O)CC(=O)C(C)(C)C (stereo not given)	> 100					81.9		61.3					25.7				
CCN1CCC(O)(/C=C/c2ccc(C)cc2C)C(C(=O)/C=C/c2ccc(C)cc2C)C1 (stereo not given)	11.7					35.7		4.18					> 21.2				
CC(=O)[C@@]1(O)CC[C@H]2[C@@H]3C[C@H](C)C4=CC(=O)C=C[C@]4(C)[C@@]3(F)[C@@H](O)C[C@@]21C	> 100	> 100	> 100	> 100	> 100	> 100		> 100	> 100	> 100	> 100	> 100	> 100	> 100			
COc1cccc(/C=N/n2c(C)n[nH]c2=O)c1	> 100					> 100		> 100					> 100				
COC(=O)C1=C(C)NC(C)=C(C(=O)OC)C1c1nc2sccn2c1[N+](=O)[O-]	> 100					> 100		> 100					> 100				
O=C(N/N=C/c1cc(Br)cc(Br)c1[O-])c1ccccc1O.O=C(N/N=C/c1cc(Br)cc(Br)c1[O-])c1ccccc1O.[Cu+2]	1.24					1.05		0.926	2.09								
C=C1C(=O)C=C[C@]2(C)CC[C@H]3C(=C)C(=O)O[C@@H]3[C@@H]12	5.75					3.96		2.61					5.87				
